The text below walks through data of patent US20230174571A1, “METHOD OF TREATING SHIP1-MEDIATED DISEASES USING PELOROL DERIVATIVES” (Zebrapeutics Inc., priority 2020, published 2023).

One test has as its target T1, SHIP1 (Mus musculus, UniProt Q9ES52).
T1 sequence (Q9ES52 1-1191): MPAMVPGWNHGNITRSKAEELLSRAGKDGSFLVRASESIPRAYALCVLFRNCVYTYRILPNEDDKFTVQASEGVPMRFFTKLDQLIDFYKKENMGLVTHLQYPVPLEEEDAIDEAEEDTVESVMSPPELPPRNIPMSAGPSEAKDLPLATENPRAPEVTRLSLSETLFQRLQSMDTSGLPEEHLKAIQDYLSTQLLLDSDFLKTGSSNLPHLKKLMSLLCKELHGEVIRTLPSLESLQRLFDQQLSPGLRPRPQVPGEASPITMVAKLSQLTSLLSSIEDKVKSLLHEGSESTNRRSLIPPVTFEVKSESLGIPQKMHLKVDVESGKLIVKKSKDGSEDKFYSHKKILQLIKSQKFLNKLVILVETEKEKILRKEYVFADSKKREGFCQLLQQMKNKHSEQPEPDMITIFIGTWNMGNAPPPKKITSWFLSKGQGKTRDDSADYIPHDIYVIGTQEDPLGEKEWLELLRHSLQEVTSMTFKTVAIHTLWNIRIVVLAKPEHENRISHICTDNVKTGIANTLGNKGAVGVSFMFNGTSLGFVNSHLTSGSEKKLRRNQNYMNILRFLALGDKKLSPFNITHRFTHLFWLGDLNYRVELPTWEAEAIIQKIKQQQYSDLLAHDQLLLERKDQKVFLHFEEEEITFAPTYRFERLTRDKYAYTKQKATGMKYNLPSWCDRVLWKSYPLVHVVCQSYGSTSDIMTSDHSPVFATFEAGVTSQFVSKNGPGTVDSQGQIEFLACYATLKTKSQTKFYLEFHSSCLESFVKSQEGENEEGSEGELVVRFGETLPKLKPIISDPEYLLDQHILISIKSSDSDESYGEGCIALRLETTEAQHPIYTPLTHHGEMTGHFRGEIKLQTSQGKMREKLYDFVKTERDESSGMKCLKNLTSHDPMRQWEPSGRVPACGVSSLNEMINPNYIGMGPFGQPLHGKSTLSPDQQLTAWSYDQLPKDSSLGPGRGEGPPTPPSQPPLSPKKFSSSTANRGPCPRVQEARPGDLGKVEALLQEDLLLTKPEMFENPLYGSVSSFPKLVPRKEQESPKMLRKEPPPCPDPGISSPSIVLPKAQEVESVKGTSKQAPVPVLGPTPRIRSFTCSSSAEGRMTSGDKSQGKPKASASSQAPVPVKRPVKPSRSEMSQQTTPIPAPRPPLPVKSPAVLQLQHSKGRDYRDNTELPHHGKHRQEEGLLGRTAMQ
Particulars: binds to the same SHIP1 C2 domain as PI(3,4)P2; Ong et al., 2007; cited from earlier work.

In another test the target is T2, PAC2-K681A (Mus musculus, UniProt Q9ES52, K681A).
T2 construct: PAC1 and PAC2 consists of phosphatase and C2 domain (residues aa 402-861 and aa 402-857 respectively); made in house; host or cells: E. coli BL21 co-transformed with pBirAcm
T2 sequence (Q9ES52 402-857 K681A): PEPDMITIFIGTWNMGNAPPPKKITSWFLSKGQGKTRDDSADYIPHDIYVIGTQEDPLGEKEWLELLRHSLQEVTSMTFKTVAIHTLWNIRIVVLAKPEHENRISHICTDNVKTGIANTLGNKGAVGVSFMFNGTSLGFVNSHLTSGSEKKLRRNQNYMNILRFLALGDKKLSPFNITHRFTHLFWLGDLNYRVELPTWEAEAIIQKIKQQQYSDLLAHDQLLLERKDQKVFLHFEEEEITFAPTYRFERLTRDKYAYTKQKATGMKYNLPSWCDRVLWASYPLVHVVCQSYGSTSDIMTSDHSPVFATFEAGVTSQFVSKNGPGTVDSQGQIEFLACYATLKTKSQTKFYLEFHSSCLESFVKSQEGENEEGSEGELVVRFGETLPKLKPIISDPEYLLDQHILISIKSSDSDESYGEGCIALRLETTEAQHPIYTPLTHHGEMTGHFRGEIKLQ
The experiment in a line: Biolayer interferometry, PAC2-K681A. It counts as binding. To be noted: 20 μM analyte; K681A vs wild-type PAC2. The method, then: Expression of PAC2-Avi tag for Biolayer interferometry. A sequence corresponding to Avi-tag ([…]) was added to the c-terminal end of the PAC2 in LIC-HMT-PAC2 expressing vector via standard restriction digestion and ligation. The LIC-HMT-PAC2-Avi expressing vector was then co-transformed into E. coli BL21 cells with pBirAcm expression vector in 1:1 molar ratio. Overnight culture was inoculated with a 250-fold dilution to start the actual culture. The cells were grown at 37° C. in LB medium (supplemented with 50 μg/mL of kanamycin and 10 μg/mL of chloramphenicol) with shaking speed of 225 rpm. When OD600 reached about 0.6, 5 mM of biotin in bicine buffer pH 8.3 was added to the culture to have final concentration of 125 μM of biotin. The culture was then cooled down to room temperature before the addition of 0.4 mM isopropyl-B-D-1-thiogalactopyranoside (IPTG) to induce the expression of the recombinant protein with Avi-tag. The rest of the method is identical as written in “Expression of PAC2 for crystallography”.
Biolayer interferometry. […] The association was measured for 600 s at an analyte concentration of 20 μM followed by dissociation for 300 s in the same buffer as the baseline. The raw data was analyzed using the Octet Red Data Analysis software (ver. 8.2). […]
A general note: BLI is a label-free optical method that tracks binding on a fibre tip over time.

Turning to `Cc1cc(O)cc2c1C1(C)CCC3C(C)(C)CCCC3(C)C1C2` (centres unmarked) [Compound I-1], the SHIP1 functional activity result on SHIP1 is reported as “increases SHIP1 functional activity”.

Consider `CC12CCC3C(C)(C)C(N)CCC3(C)C1Cc1cc(O)cc(O)c12` (centres unmarked) [Compound I-2], for which, at PAC2-K681A, the “binding to PAC2 with K681A substitution (BLI)” value is “impairs”.
